Measured values from paper PMC12040169 (PLOS Biology, 2025).

Assay: in vitro
Conditions: human, hela cells, % viability

SMILES | viability at 28.5 h, 10 µM [%]
NNC(=O)CNC(c1cc(Br)ccc1N)c1ccccc1Cl (stereo not shown) [CBK262977] | 87.1
FC(F)(F)c1cccc(OCc2ccc(-c3ccccc3)cc2)n1 [CBK115836] | 92.1
OCc1cccc(-c2nccnc2NCC(O)COc2ccccc2)c1 (stereo not shown) [CBK036842] | 94.3
O=C(O)c1cccc(-c2ccc(/C=C\c3nc(O)c([N+](=O)[O-])c(=O)[nH]3)o2)c1 [CBK267209] | 96.9
COc1ccc(OC)c(-c2nc(Nc3ccc(Cl)cc3Cl)sc2CC(=O)O)c1 [CBK264175] | 103
COc1ccc(-c2n[nH]c(=S)n2CCC(=O)NCc2ccc(CN3CCCCC3)cc2)cc1 [CBK297918] | 94.5
CCCn1c(C)c(C)n2c3c(=O)n(CCC(=O)OC)c(=O)n(C)c3nc12 [CBK306048] | 98.4
CN1CCN(C(=O)C2CCCCC2C(=O)O)CC1 (stereo not shown) [CBK287092] | 86.4
O=C(Cc1ccc(F)cc1)N1C2CCC1CC(O)(c1ccco1)C2 (stereo not shown) [CBK284033] | 86.4
CCc1ccc(-c2csc(NC(=O)CN3C(=O)CCC3=O)n2)cc1 [CBK287347] | 90.3
CC(=O)NCc1cccc(-c2cc(OCC3COc4ccccc4O3)cnc2C)c1 (stereo not shown) [CBK161723A] | 112
O=C(Oc1ccc2c(=O)c(Oc3ccc(-c4ccccc4)cc3)coc2c1)c1cccnc1 [CBK264479] | 97.6
O=C(Cc1ccccc1)N/N=C/C1CC2CC1CC2C(F)(F)F (stereo not shown) [CBK021488] | 93
O=C(O)CC(Cc1ccccc1)(C(=O)O)c1ccccc1 (stereo not shown) [CBK287133] | 77.8
O=C(CCN1CCN(CCO)CC1)Nc1cccc(Br)c1 [CBK058502] | 102
COc1cc(OC)cc(-c2c(C)ncnc2OC)c1 [CBK306765] | 91.4
CCn1c(SCC(=O)c2ccc(F)cc2)nnc1C(C)Oc1ccccc1 (stereo not shown) [CBK269695] | 108
CSCCCNC(=O)N1CCN(C2CCN(C)CC2)CC1 [CBK155882] | 101
O=C(c1ccccc1)c1nnsc1-c1ccccc1 [CBK008193] | 97
O=C(NC(Cc1cccs1)c1nccs1)c1cccnc1 (stereo not shown) [CBK285133] | 98.3
CCNC(=O)N1CC2(CCN(CC(=O)c3ccsc3)CC2)c2ccccc21 [CBK144601T] | 88.6
N/N=C1\C2CN3CCN(C2)CC1(Cc1ccccc1)C3 [CBK261977] | 91.8

SMILES | viability at 28.5 h, 10 µM [%]
COc1cccc(Cc2c(C)nc3c(C(=O)NCC4COc5ccccc5O4)cnn3c2C)c1 (stereo not shown) [CBK162064] | 111
O=S(=O)(c1ccc(-c2csc(-c3ccccc3)n2)cc1)N1CCCCCC1 [CBK265504] | 84.9
O=C(CSc1nnc(Cc2cccc3ccccc23)n1-c1ccccc1)NC1CC1 [CBK267382] | 86.3
CC1(C)[C@H](Cc2cc(CC3CCCCC3)on2)C[C@@H]1NC(=O)C1CCCC1 [CBK289256] | 84.7
Cc1ccc(Cc2cnc(NC(=O)NCCN3CCOCC3)s2)cc1F [CBK305449] | 93.6
CCOc1cc(/C=C2\N=C(c3ccc(OC)cc3)OC2=O)cc(Br)c1OCC(=O)OC [CBK102552] | 96.3
COC(=O)[C@H]1CCc2ccccc2N1C(C)=O [CBK284256] | 90.2
O=C(c1cc(C2CC2)on1)N1CCc2ncc(Cl)cc2C1 [CBK284855] | 106
O=C(Nc1ccccc1C(=O)O)c1cc(S(=O)(=O)Nc2cccc(F)c2)ccc1Cl [CBK263242] | 84.7
O=C(Cn1cc(-c2ccc(CN3CCCCC3)cc2)nn1)NCc1ccc(Cl)cc1Cl [CBK167689] | 83.2
CCc1cc2c(=O)c(-c3nc4ccccc4s3)coc2c(CN2CCCCC2)c1O [CBK262284] | 86.1
CC(C)n1c(=O)n(C(=O)c2ccco2)c2cccnc21 [CBK283856] | 102
c1cncc(OCCOc2nsnc2N2CCNCC2)c1 [CBK001825G] | 94.4
O=C(O)CSc1nnc(C2COc3ccccc3O2)n1-c1ccccc1 (stereo not shown) [CBK263832] | 104
CC(C)(C)c1ccc(-c2cnc3ncccc3c2N)cc1 [CBK083684] | 99.9
COCCN(C(=O)c1nc2cccnc2s1)C1CCS(=O)(=O)C1 (stereo not shown) [CBK304091] | 97
Cc1cc(NC(=O)CN(C)C(=O)c2cnc(Cl)c(Cl)c2)no1 [CBK306132] | 101
O=C(Oc1ccc(-n2ccnc2)cc1)c1ccc(-c2ccccc2)cc1 [CBK095145] | 93.3
Cc1cccc(OCCNC(=O)CN2CCCC2c2cnn(C)c2)c1 (stereo not shown) [CBK305826] | 81
Fc1ccccc1CSc1nc2ccc[nH]c-2n1 [CBK287883] | 91.2
CN1CCC(C(=O)NC2Cc3ccccc3C2)CC1 [CBK200263] | 118
Cc1c(C(=O)N(C)Cc2nc(C(F)(F)F)cs2)nnn1C1CCNCC1 [CBK304315C] | 106

SMILES | viability at 28.5 h, 10 µM [%]
CCN(Cc1ccc(C#N)cc1F)C(=O)Nc1cc(C)nn1C [CBK305730] | 94.2
Cc1noc(C)c1NC(=O)c1cncn1C [CBK200396] | 115
O=C(Nc1ccccn1)C1CCCN1c1nc(O)cc(C(F)(F)F)n1 (stereo not shown) [CBK004254] | 91
CC(C)n1c(=O)n(CC(=O)NC2CCCC2)c2cccnc21 [CBK283700] | 89.2
Cc1ccc(NC(=O)N(Cc2ccc3ccccc3c2)CC2CCNCC2)cc1[N+](=O)[O-] [CBK049771] | 100
CN1CCN(C(=O)c2ccc(-c3cncc(-c4cc5ccccc5[nH]4)n3)c(F)c2)CC1 [CBK144906] | 92.8
Cc1noc(C)c1S(=O)(=O)Nc1c(C(=O)Nc2ccc(F)cc2)[nH]c2ccccc12 [CBK050099] | 119
CN(C)CCN(C)c1cccc(-c2cccc(OC(F)(F)F)c2)n1 [CBK037020] | 102
COc1cccc([C@H]2CC[C@H](N(CCN(C)C)C(=O)Nc3cc(F)ccc3F)CC2)c1OC [CBK050184] | 113
CC(C)(CNC(=O)c1ccc(=O)n(CC(=O)NC2CCCCC2)c1)c1ccc(F)cc1 [CBK285984] | 83.9
O=C(CC(CN1CCCCC1)C(=O)O)Nc1cccc(O)c1 (stereo not shown) [CBK286788] | 114
O=C(CCNS(=O)(=O)c1ccccc1Cl)N1CCN(C(=O)C2CC2)CC1 [CBK306025] | 113
COc1cc(OC)nc(C(NC(=O)C2CCN(Cc3nccs3)CC2)c2ccc(Cl)cc2)n1 (stereo not shown) [CBK148217] | 85.8
O=[N+]([O-])c1ccc(CN2CCC(Oc3nccnc3OCCN3CCOCC3)CC2)cc1 [CBK082923T] | 91
CCN(CC)C(=O)Cn1nc(C)n2c(cc3oc(C)cc32)c1=O [CBK283609] | 93.7
Cc1nn(CCC(=O)NC(C)(C)CN2CCCC(C)C2)c(C)c1C (stereo not shown) [CBK282676] | 91.4
S=C(Nc1cccnc1)N[C@H]1CC[C@@]2(c3cccnc3)CCN(Cc3ccccc3)[C@H]2C1 [CBK028450] | 94.8
COC(=O)c1c(C)[nH]c(C(=O)CSc2ncnc3scc(-c4ccccc4)c23)c1C [CBK265918] | 95.5
C=C(C)CN1CCN(CC(CC(=O)NCc2ccccc2)C(=O)O)CC1 (stereo not shown) [CBK286823] | 98.1
O=C(O)c1cccc(-c2cn3ccnc3c(N3CCOCC3)n2)c1 [CBK038053] | 84
CSCC(=O)N1C[C@@H]2C[C@H](C1)c1c(-c3ccc(NC(C)=O)cc3)ccc(=O)n1C2 [CBK289200] | 89.7
Cc1ccc(NC2(C#N)C(=O)Nc3ccccc32)cc1C (stereo not shown) [CBK116388] | 114

SMILES | viability at 28.5 h, 10 µM [%]
OC(CSc1ccccc1)CN1CCN(C(c2ccccc2)c2ccccc2)CC1 (stereo not shown) [CBK074683] | 91.3
Cc1nc(C)c(CCC(=O)NC2CCSc3c(F)cccc32)c(=O)[nH]1 (stereo not shown) [CBK295601] | 95.2
Cc1sc(NC(=O)c2cc(-c3ccncc3)nc3ccc(Cl)cc23)c(C#N)c1C [CBK267742] | 87.7
Cc1cc2occ(CC(=O)NCC(C)n3cncn3)c2cc1C (stereo not shown) [CBK282614] | 101
CCN(CC)C(=O)C1CN2CCc3cc(OC)c(OC)cc3C2CC1OC(C)=O (stereo not shown) [CBK022778] | 110
Cc1[nH]c2ccc(F)cc2c1CC(=O)N(C)CCN1CCCCC1 [CBK282748] | 84.3
Cc1ccc(CNC(=O)Cc2csc(N3CCCC3=O)n2)n1C [CBK305642] | 98.6
CCC(=O)Nc1nc2ccccc2n1CCN1CCOCC1 [CBK261477] | 101
CN(C)c1ccc(NC(=O)C(Cc2ccccc2)N2C(=O)c3ccccc3C2=O)cc1 (stereo not shown) [CBK262413] | 99.6
CNCC1CCCN(C(=O)c2ccc(Oc3cccnc3)cc2)C1 (stereo not shown) [CBK304479] | 83.2
COc1cc(C(=O)NC/C=N/O)cc(OC)c1OC [CBK015662] | 90
CN(c1ccccc1)S(=O)(=O)c1cccc(NC(=O)c2ccc(=O)[nH]n2)c1 [CBK297091] | 96.3
O=C(CCN1CCCCC1)NCC1OCCc2ccccc21 (stereo not shown) [CBK013619] | 97
Cc1ccccc1NS(=O)(=O)c1cc(C(=O)Nc2ccc(S(=O)(=O)N3CCCC3)cc2)ccc1C [CBK269004] | 92.9
COc1ccccc1-c1ccc(CC2(C(=O)NCc3cccc(F)c3)CCOCC2)cc1 [CBK286521] | 92.6
CN(C)CCN(Cc1ccncc1)Cc1ccsc1 [CBK283206] | 102
Cc1cccnc1C(Cc1ccsc1)NC(=O)CCc1ccno1 (stereo not shown) [CBK284804] | 86.7
NC(=O)C1(Cc2cccc(-c3cccs3)c2)CCN(C(=O)Cc2ccccc2)CC1 [CBK286272] | 84.8
Cc1cc(C)nc(N2CCC(c3cc(CCOc4ccc(C(F)(F)F)cc4)[nH]n3)C2)n1 (stereo not shown) [CBK286073] | 93.5
CCN(CCO)C(=O)NC1CCCc2c1cnn2Cc1ccccc1 (stereo not shown) [CBK305277] | 91.5

Same assay, conditions: human, hela cells, % viability, bulk resorufin, single well

SMILES | viability at 28.5 h, 10 µM [%]
Cc1cc(C)c2c(c1)COC1(CCNCC1)O2 [CBK061574] | 100
O=[N+]([O-])c1ccc(-n2cnc3ccccc32)c([N+](=O)[O-])c1 [CBK261120] | 91.9
